Where “and” joins values, the source holds several entries; their conditions need not be identical. Equal values may be shown once.
Experiments:
[1] = molecular target: Glycogen synthase kinase-3 alpha (Homo sapiens, UniProt P49840); experiment: TR-FRET Assay
Method in brief: (§1)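 Compound was preincubated 30 min in assay buffer before the kinase reaction, which was quenched with EDTA. Phosphorylation was detected by TR-FRET after adding a solution of 40 nM streptavidin-d2 and 2 nM Tb-labelled anti-pSer641 antibody.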

[2] = molecular target: Glycogen synthase kinase-3 beta (Homo sapiens, UniProt P49841); experiment: TR-FRET Assay
Glycogen synthase kinase-3 beta, sequence (P49841 whole entry): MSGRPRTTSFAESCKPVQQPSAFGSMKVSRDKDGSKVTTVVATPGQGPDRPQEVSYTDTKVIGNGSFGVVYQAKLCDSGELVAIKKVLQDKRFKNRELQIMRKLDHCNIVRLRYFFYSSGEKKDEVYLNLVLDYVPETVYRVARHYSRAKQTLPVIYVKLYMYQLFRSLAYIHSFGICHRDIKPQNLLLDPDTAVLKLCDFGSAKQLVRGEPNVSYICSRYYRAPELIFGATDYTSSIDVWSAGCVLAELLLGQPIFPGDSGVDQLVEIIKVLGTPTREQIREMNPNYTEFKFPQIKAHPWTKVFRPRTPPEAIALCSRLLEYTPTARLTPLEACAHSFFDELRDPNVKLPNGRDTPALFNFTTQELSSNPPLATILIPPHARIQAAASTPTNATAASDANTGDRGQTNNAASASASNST
Method in brief: as §1

Glycogen synthase kinase-3 alpha, sequence (P49840 whole entry): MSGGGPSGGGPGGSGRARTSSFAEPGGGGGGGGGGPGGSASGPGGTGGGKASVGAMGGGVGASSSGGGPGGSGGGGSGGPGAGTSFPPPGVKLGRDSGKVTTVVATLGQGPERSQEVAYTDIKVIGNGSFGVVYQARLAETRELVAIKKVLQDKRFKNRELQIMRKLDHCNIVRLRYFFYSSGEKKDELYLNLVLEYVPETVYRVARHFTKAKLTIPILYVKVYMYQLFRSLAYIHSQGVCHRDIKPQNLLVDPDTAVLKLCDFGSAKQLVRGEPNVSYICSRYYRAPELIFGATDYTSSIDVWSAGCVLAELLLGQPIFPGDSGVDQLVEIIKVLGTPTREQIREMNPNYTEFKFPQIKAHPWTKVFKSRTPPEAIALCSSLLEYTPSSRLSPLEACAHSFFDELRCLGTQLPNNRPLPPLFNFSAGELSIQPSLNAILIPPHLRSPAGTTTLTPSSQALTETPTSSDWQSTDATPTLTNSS

SMILES	IC50 [1]	IC50 [2]
CCC1(c2cccc(S(=O)(=O)C3CC3)c2)C2=CN=NC2NC2=C1C(=O)N(C)C(C)(C)C2 (stereo unspecified) [US20250313563, Compound 948303]	< 100 nM	< 100 nM
CCC1(c2cccc(S(=O)(=O)CC)c2)C2=CN=NC2NC2=C1C(=O)CC(C)(C)C2 (stereo unspecified) [US20250313563, Compound 889579]	< 100 nM	< 100 nM
CC(=O)N1CC[C@]2(C1)C1=C(N=NC1)NC1=C2C(=O)CC(C)(C)C1 [US20250313563, Compound 889583]	1000 to 5000 nM	> 5000 nM
CC(C)(C)CC1=C2C(N=N1)NC1=C(C(=O)CC(C)(C)C1)[C@@]21CCc2c(F)cccc21 (stereo partly specified) [US20250313563, Compound 791257]	< 100 nM	< 100 nM
CC[C@]1(c2cccc(C(F)(F)F)c2)C2=CN=NC2NC2=C1C(=O)C[C@]1(CCNC1=O)C2 (stereo partly specified) [US20250313563, Compound 950333]	< 100 nM	100 to 1000 nM
CC[C@@]1(c2cccc(C(F)(F)F)c2)C2=CN=NC2NC2=C1C(=O)N(c1cscn1)CC2 (stereo partly specified) [US20250313563, Compound 952638]	> 5000 nM	> 5000 nM
CCC1(c2cccc(N(C)C(C)=O)c2)C2=CN=NC2NC2=C1C(=O)CC(C)(C)C2 (stereo unspecified) [US20250313563, Compound 801319]	< 100 nM	< 100 nM
CN1CCCC2(CC1)C1=C(N=NC1)NC1=C2C(=O)CC(C)(C)C1 (stereo unspecified) [US20250313563, Compound 893313]	> 5000 nM	> 5000 nM
CCC1(c2cccc(N3CCOCC3)c2)C2=CN=NC2NC2=C1C(=O)NC(C)(C)C2 (stereo unspecified) [US20250313563, Compound 945602]	1000 to 5000 nM	> 5000 nM
CC1(C)CC(=O)C2=C(C1)NC1=NN=C(Br)C1C21CCNc2ccccc21 (stereo unspecified) [US20250313563, Compound 810460]	1000 to 5000 nM	> 5000 nM
CC[C@@]1(c2cccc([C@@H](C)c3ncccn3)c2)C2=CN=NC2NC2=C1C(=O)CC(C)(C)C2 (stereo partly specified) [US20250313563, Compound 948061]	100 to 1000 nM	1000 to 5000 nM
CC[C@@]1(c2cccc(N3CCCC3)c2)C2=CN=NC2NC2=C1C(=O)CC(C)(C)C2 (stereo partly specified) [US20250313563, Compound 810510]	< 100 nM	100 to 1000 nM
CC1(C)CC(=O)C2=C(C1)NC1N=NC=C1C21CN(c2ccc(C(F)(F)F)cc2)C1 (stereo unspecified) [US20250313563, Compound 945478]	100 to 1000 nM	100 to 1000 nM
CC[C@]1(c2cccc(-c3ccnn3C)c2)C2=CN=NC2NC2=C1C(=O)NC1(CCCC1)C2 (stereo partly specified) [US20250313563, Compound 948019]	1000 to 5000 nM	> 5000 nM
CC[C@@]1(c2cccc(N(C)c3nccc(C)n3)c2)C2=CN=NC2NC2=C1C(=O)CC(C)(C)C2 (stereo partly specified) [US20250313563, Compound 945329]	100 to 1000 nM	1000 to 5000 nM
CC[C@@]1(c2cccc(-c3cn(C)nc3C)c2)C2=C(CC(C)(C)NC2=O)NC2N=NC(C(F)F)=C21 (stereo partly specified) [US20250313563, Compound 950497]	< 100 nM	< 100 nM and 100 to 1000 nM
CCC1(c2cccc(N3CCCC3)c2)C2=CN=NC2NC2=C1C(=O)NC(C)(C)C2 (stereo unspecified) [US20250313563, Compound 945723]	100 to 1000 nM	1000 to 5000 nM
CC[C@]1(c2cc(-c3ccncc3)ccc2C)C2=CN=NC2NC2=C1C(=O)CC(C)(C)C2 (stereo partly specified) [US20250313563, Compound 893323]	100 to 1000 nM	100 to 1000 nM
CC[C@]1(c2cccc(C(F)(F)F)c2)C2=CN=NC2NC2=C1C(=O)N(c1ccccn1)CC2 (stereo partly specified) [US20250313563, Compound 949310]	100 to 1000 nM	100 to 1000 nM
CC[C@]1(c2cccc(-c3ccnc4c3CCC4)c2)C2=C(CC(C)(C)NC2=O)NC2N=NC(C(F)(F)F)=C21 (stereo partly specified) [US20250313563, Compound 948769]	100 to 1000 nM	100 to 1000 nM
CCC1(c2cccc(-c3cnco3)c2)C2=CN=NC2NC2=C1C(=O)CC(C)(C)C2 (stereo unspecified) [US20250313563, Compound 944025]	< 100 nM	100 to 1000 nM
CCC1(c2cccc(-c3cc(OC)ncc3F)c2)C2=CN=NC2NC2=C1C(=O)CC(C)(C)C2 (stereo unspecified) [US20250313563, Compound 932630]	< 100 nM	< 100 nM
CC[C@@]1(c2cccc(Br)c2)C2=CN=NC2NC2=C1C(=O)C[C@@H](C)C2 (stereo partly specified) [US20250313563, Compound 810485]	> 5000 nM	> 5000 nM
CCC1(c2cccc(-c3ccnc(C(F)(F)F)c3)c2)C2=C(CC(C)(C)CC2=O)NC2N=NC(C)=C21 (stereo unspecified) [US20250313563, Compound 883989]	< 100 nM	100 to 1000 nM
Cn1nccc1S(=O)(=O)N1CCC2(CC1)C1=C(N=NC1)NC1=C2C(=O)CC(C)(C)C1 [US20250313563, Compound 932649]	< 100 nM	< 100 nM
CC[C@@]1(c2cccc(-c3ccccc3)c2)C2=CN=NC2NC2=C1C(=O)CC(C)(C)C2 (stereo partly specified) [US20250313563, Compound 801368]	< 100 nM	100 to 1000 nM
CC[C@]1(c2cccc(-c3ccnc(C(F)F)c3)c2)C2=CN=NC2NC2=C1C(=O)CC(C)(C)C2 (stereo partly specified) [US20250313563, Compound 943915]	> 5000 nM	> 5000 nM
Cn1cc(-c2cccc([C@@]3(C)C4=C(CC(C)(C)CC4=O)NC4=C3C(CC(C)(C)C)N=N4)c2)cn1 (stereo partly specified) [US20250313563, Compound 126367]	> 5000 nM	> 5000 nM

Next, values leading:

IC50 [1]	IC50 [2]	SMILES
< 100 nM and 100 to 1000 nM	100 to 1000 nM and 1000 to 5000 nM	CC[C@@]1(c2cccc(-c3ccnn3C)c2)C2=CN=NC2NC2=C1C(=O)N[C@]1(CCCOC1)C2 (stereo partly specified) [US20250313563, Compound 948529]
< 100 nM and 100 to 1000 nM	< 100 nM and 100 to 1000 nM	CC1CCC(CC(=O)N2CC3(C2)CC2(CO3)C3=C(N=NC3)NC3=C2C(=O)CC(C)(C)C3)C1 (stereo unspecified) [US20250313563, Compound 947269]
100 to 1000 nM	1000 to 5000 nM	CC[C@]1(c2cccc(-c3ccncc3C(F)(F)F)c2)C2=CN=NC2NC2=C1C(=O)CC(C)(C)C2 (stereo partly specified) [US20250313563, Compound 943918]
< 100 nM	100 to 1000 nM	CCC1(c2cccc(-c3cnn(C)c3)c2)C2=C(CC(C)(C)NC2=O)NC2N=NC(C)=C21 (stereo unspecified) [US20250313563, Compound 944027]
1000 to 5000 nM	> 5000 nM	CC[C@]1(c2cccc(-c3cnc4n3CCCC4)c2)C2=CN=NC2NC2=C1C(=O)CC(C)(C)C2 (stereo partly specified) [US20250313563, Compound 945618]
< 100 nM	< 100 nM	CC[C@@]1(c2cccc(-c3ccncc3F)c2)C2=C(CC(C)(C)NC2=O)NC2N=NC(C(F)(F)F)=C21 (stereo partly specified) [US20250313563, Compound 948777]
100 to 1000 nM	100 to 1000 nM	COc1ccc(S(=O)(=O)N2CCC3(CC2)C2=C(N=NC2)NC2=C3C(=O)CC(C)(C)C2)cc1 [US20250313563, Compound 901469]
< 100 nM	< 100 nM	CC1(C)CC(=O)C2=C(C1)NC1=C(CN=N1)C21CCC(S(C)(=O)=O)CC1 (stereo unspecified) [US20250313563, Compound 913356]
100 to 1000 nM	> 1670 nM	CC1(C)CC(=O)C2=C(C1)NC1=C(CN=N1)C21CCc2c(F)cccc21 (stereo unspecified) [US20250313563, Compound 801357]
1000 to 5000 nM	> 5000 nM	Cn1nccc1CN1CC2(C1)C1=C(N=NC1)NC1=C2C(=O)CC(C)(C)C1 [US20250313563, Compound 932653]
< 100 nM	100 to 1000 nM	CC[C@]1(c2cccc(-c3ccnc(C)c3)c2)C2=C(N=NC2)NC2=C1C(=O)C(C)(C)C2 [US20250313563, Compound 950282]
< 100 nM	< 100 nM	CC[C@@]1(c2cccc(N(C)c3ccccn3)c2)C2=CN=NC2NC2=C1C(=O)CC(C)(C)C2 (stereo partly specified) [US20250313563, Compound 875568]
< 100 nM	< 100 nM	CC1(C)CC2=C(C(=O)N1)C1(CCN(S(=O)(=O)c3ccc(F)cc3)CC1)C1=C(N=NC1)N2 [US20250313563, Compound 943963]
< 100 nM	< 100 nM and 100 to 1000 nM	CCC1(c2cccc(-c3c(C)nnn3C)c2)C2=CN=NC2NC2=C1C(=O)CC(C)(C)C2 (stereo unspecified) [US20250313563, Compound 943996]
100 to 1000 nM	1000 to 5000 nM	CC[C@]1(c2cccc(-c3ccnc(N(C)C)c3)c2)C2=C(CC(C)(C)CC2=O)NC2N=NC(C)=C21 (stereo partly specified) [US20250313563, Compound 913048]
< 100 nM	100 to 1000 nM	CC1(C)CC(=O)C2=C(C1)NC1=C(CN=N1)C21CCC(F)(F)CC1 [US20250313563, Compound 883972]
< 100 nM	< 100 nM	CC1(C)CC(=O)C2=C(C1)NC1=C(CN=N1)[C@@]21COC2(CN(C(=O)Cc3ccccc3)C2)C1 [US20250313563, Compound 948037]
< 100 nM	100 to 1000 nM	CC[C@@]1(c2cccc(-c3cnn(C4CC4(F)F)c3)c2)C2=CN=NC2NC2=C1C(=O)NC(C)(C)C2 (stereo partly specified) [US20250313563, Compound 950060]
> 5000 nM	> 5000 nM	CC[C@@]1(c2cccc(C(F)(F)F)c2)C2=CN=NC2NC2=C1C(=O)N(C)C[C@@H]2C (stereo partly specified) [US20250313563, Compound 883981]
100 to 1000 nM	1000 to 5000 nM	CC[C@@]1(c2cccc(-c3cnn(CCN4CCCC4)c3)c2)C2=CN=NC2NC2=C1C(=O)NC(C)(C)C2 (stereo partly specified) [US20250313563, Compound 952022]
> 5000 nM	> 5000 nM	CC[C@]1(c2cccc(N(C)c3cccc(C(C)(F)F)c3)c2)C2=CN=NC2NC2=C1C(=O)CC(C)(C)C2 (stereo partly specified) [US20250313563, Compound 927345]
< 100 nM	100 to 1000 nM	CC[C@@]1(c2cccc(N(C)c3cccc(OC)n3)c2)C2=CN=NC2NC2=C1C(=O)CC(C)(C)C2 (stereo partly specified) [US20250313563, Compound 932666]
< 100 nM and 100 to 1000 nM	< 100 nM and 100 to 1000 nM	CC1(C)CC2=C(C(=O)N1)C1(CCN(S(=O)(=O)C3CCCC3)CC1)C1=C(N=NC1)N2 [US20250313563, Compound 943960]
100 to 1000 nM	100 to 1000 nM	CC1(C)CC(=O)C2=C(C1)NC1=C(CN=N1)C21CCC(C(=O)N2CCCC2)CC1 (stereo unspecified) [US20250313563, Compound 945396]
< 100 nM and 100 to 1000 nM	100 to 1000 nM and > 5000 nM	CC[C@@]1(c2cccc(-c3cnn4c3CCCC4)c2)C2=CN=NC2NC2=C1C(=O)NC(C)(C)C2 (stereo partly specified) [US20250313563, Compound 947410]

Reference: BindingDB's records for patent US20250313563 (The Broad Institute, 2025)
